pKi: −log10 of the molar value.
Target: CES2 (Homo sapiens, UniProt O00748)
Assay: Enzyme Inhibition Assay
Settings: pH 7.4; 25 °C
Method: CE inhibition was determined using a spectrophotometric multiwell plate assay with o-NPA as a substrate. The rate of change in absorbance at 420 nm was measured at 15 sec intervals for 5 min and compared to wells containing no inhibitor. […] Further analysis of inhibitors was performed in condition that inhibitor concentrations ranged from 1 pM to 100 uM. Data were fitted to the equation. Examination of curve fits to identify the best model for enzyme inhibition. Ki values were then calculated from the equation predicted by Prism to be the best fit for the experimental data.

CES2, sequence (O00748 whole entry, looked up): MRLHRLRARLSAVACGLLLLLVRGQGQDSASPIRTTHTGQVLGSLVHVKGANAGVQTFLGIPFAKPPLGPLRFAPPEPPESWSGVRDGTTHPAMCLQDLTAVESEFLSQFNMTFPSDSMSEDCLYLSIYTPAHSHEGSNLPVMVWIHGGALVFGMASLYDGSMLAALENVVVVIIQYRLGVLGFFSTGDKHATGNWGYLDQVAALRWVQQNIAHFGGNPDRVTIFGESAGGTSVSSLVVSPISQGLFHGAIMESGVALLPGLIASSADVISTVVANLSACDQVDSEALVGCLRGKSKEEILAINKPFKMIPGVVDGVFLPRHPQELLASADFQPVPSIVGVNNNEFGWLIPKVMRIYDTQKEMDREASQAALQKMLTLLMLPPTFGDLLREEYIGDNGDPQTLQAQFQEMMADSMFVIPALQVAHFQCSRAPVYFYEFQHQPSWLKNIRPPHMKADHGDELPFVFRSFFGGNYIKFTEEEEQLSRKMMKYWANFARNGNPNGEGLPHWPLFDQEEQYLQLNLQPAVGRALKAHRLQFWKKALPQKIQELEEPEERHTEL

SMILES	pKi
O=C1C(=O)c2cccnc2-c2ncccc21 [5,6-dihydro-1=10-phenantroline-5,6-dione]	< 4.00
O=C1C(=O)c2cccc3c2N(CCC3)C1=O [1-azatricyclo[7.3.1.0^{5,13}]trideca-5,7,9(13)-triene-2,3,4-trione]	< 4.00
COc1ccccc1C(=O)C(=O)c1ccccc1OC [1,2-bis(2-methoxyphenyl)ethane-1,2-dione]	< 4.00

Reference: BindingDB's records for doi:10.1021/jm0706867 (St. Jude Research Hospital, 2007)
